# Experimental data published in publication PMC12518693, “Potent Fluorescent Probe for Target‐Engagement Studies of Allosteric Pyruvate Kinase Modulators” (Angewandte Chemie (International Ed. in English), 2025).
# Marks after values point to notes of the source that are not given here.
# Legend:
# [1] = target: T1, PKL (Homo sapiens, UniProt P30613); assay: Surface plasmon resonance, PKL; conditions: for koff: read-out: k off SPR (PKL); for kon: read-out: k on SPR (PKL)
# Procedure: The surface was washed with 10 mM NaOH, 1M NaCl followed by immobilization of protein before subsequent deactivation by 1 M ethanolamine. Immobilization levels were typically 12000-16000 RU. The reference spot was treated as described, omitting the injection of PKL. Compound concentration series was injected over the immobilized protein in increasing concentrations using multi cycle (MCK) or single cycle kinetics (SCK) in running buffer (10 mM HEPES, 150 mM NaCl, 0.05% Tween20, 0.3% DMSO, pH 7.4). A 1:1 Langmuir interaction model is fitted to the experimental traces, enabling determination of kon, koff and Kd.
# [2] = target: T1, PKL; assay: Recombinant PKL activity assay (Kinase-Glo MAX); type: biochemical; parameters: co-crystallisation of full-length PKL (including the B-domain); 8xHis (TEV-cleavable) (N, cleaved yes); made in house; host or cells: E. coli T7 Express (NEB), pExp-NHis plasmid; conditions: for EC50: recombinant PKL 10 nM, 15 min pre-incubation, PEP 0.1 mM, ADP 0.2 mM; for PKL E max: recombinant PKL, above 100% activation, below 100% inhibition
# Procedure: The two isozymes were incubated with increasing concentrations of compounds before the addition of substrates PEP and adenosine diphosphate (ADP), and the reactions were monitored using a Kinase‐Glo MAX assay.
# Figure S2. […] The reactions were terminated by the addition of Kinase Glo-MAX reagent after 10 min, and the luminescence from each reaction was quantified using a plate reader. The activity values are expressed as a percentage of PK activity of the DMSO control. The potencies were calculated by best fit of the Hill equation to the luminescence data.^[2] (A) PKL titrations. (B) PKM2 titrations. Error bars represent the ±SE of replicates (n = 3).
# The reaction mixture contained 0.2 mM ADP, 0.1 mM PEP, 5 nM PKL, 1% DMSO, and test compounds at concentrations ranging from 0 to 1 mM across 12 titration points. Prior to substrate addition, PKL and test compounds were pre-incubated for 15 minutes.
# After the reaction, 5 µL of Kinase-Glo Max reagent was added to each well. […] For each data set, luminescence from the DMSO control was set as 100% activity, and luminescence from the protein blank (no PKL) as 0% activity. Percentage activity (E%) was calculated using the equation: […]
# Titration data was fitted to the Hill equation in Origin to determine EC₅₀ values.
# [3] = target: T1, PKL; assay: HepG2 PKM2 KO cell lysate PKL activity assay; conditions: HepG2 PKM2 KO cells, 48 h, mean ± SE n=3
# Procedure: These predominantly express PKL.
# HepG2 PKM2 KO cells (Synthego) were plated in 6 well plates at cell densities of 2 x 10^5 cells/well and incubated for 24 h at 37 °C and 5% CO2. Compounds were added to the cells in different concentrations (0.1, 1, 10 µM) and the cells were further incubated for 48 h. The control cells received DMSO as vehicle.
# Cells were washed with PBS, lysed on ice with 200 µL/well PK assay buffer. […] Pyruvate kinase (PK) activity of the cell lysates (10 µg total protein) was analyzed by using the PK assay kit from abcam (ab83432) according to manufacturer´s instructions. The PKL activity in the cell lysates treated with the compounds was expressed as a percentage of the PK activity in the vehicle.
# [4] = Solubility; type: physicochemical
# [5] = target: T2, PKM2 (Homo sapiens, UniProt P14618); assay: Surface plasmon resonance, PKM2; conditions: for K D (SPR, PKM2): 20 °C
# [6] = target: T2, PKM2; assay: Recombinant PKM2 activity assay (Kinase-Glo MAX); type: biochemical; parameters: made in house; conditions: for PKM2 E max: recombinant PKM2; for EC50: recombinant PKM2 10 nM, 15 min pre-incubation, PEP 0.1 mM, ADP 0.2 mM
# Procedure: As these compounds were binding to a known allosteric site on PK, the effects of ligands I–IV on the enzymatic activities of PKL and PKM2 were determined (Figure S2). The two isozymes were incubated with increasing concentrations of compounds before the addition of substrates PEP and adenosine diphosphate (ADP), and the reactions were monitored using a Kinase‐Glo MAX assay.
# Figure S2. Effects of ligands I-IV on recombinant PK activities. PKL or PKM2 (10 nM) were pre-incubated with the compounds (0-100 µM) for 15 min following the addition of PEP (0.1 mM) and ADP (0.2 mM). The reactions were terminated by the addition of Kinase Glo-MAX reagent after 10 min, and the luminescence from each reaction was quantified using a plate reader. The activity values are expressed as a percentage of PK activity of the DMSO control. The potencies were calculated by best fit of the Hill equation to the luminescence data.^[2] (A) PKL titrations. (B) PKM2 titrations. Error bars represent the ±SE of replicates (n = 3).
# [7] = target: PKLwt (Homo sapiens, UniProt P30613); assay: Fluorescence indicator displacement (FID) competition assay
# Procedure: Additionally, we performed fluorescence competition assays with these competitors against IV, using recombinant PKLwt (Figure 6b). […] A combined 2x PKL-tracer IV solution was prepared in Tris-HCl buffer containing 1% DMSO, with final concentrations of 0.2 µM PKL and 0.1 µM tracer IV.
# [8] = target: PKLNluc (Homo sapiens, UniProt P30613); assay: Live-cell NanoBRET assay in HEK293 cells; type: cell-based; parameters: host or cells: HEK293, transient transfection; conditions: 20 nM tracer IV
# Procedure: To investigate the intracellular interaction of tracer IV with PKLNluc, we prepared a mammalian expression construct, fusing Nluc to the N‐terminus of PKL. […] As a negative control for NanoBRET experiments, a construct expressing Nluc alone (without PKL) was also prepared.
# Additionally, cell viability assays were conducted on cells transfected with either PKLNluc or Nluc plasmids and incubated with tracer IV (Figure S4b,c).
# HEK293 cells were passed one day before transfection. The concentration of cells was adjusted to 2x10^5 cells/ml in Opti-MEM™ without phenol red (Invitrogen) supplemented with 1% FBS (Hyclone). Cells (4x10^6) were reversed transfected with 1 µg of PKLNluc plasmid or 1 µg Nluc plasmid and 9 µg of carrier DNA (Promega) using 30 µL of Fugene HD transfection reagent (Promega). […] Work solutions (100x) of tracer IV were prepared from DMSO stocks and further diluted to 20x concentrations with Tracer buffer (Promega). Twenty-five hours after transfection, the cells were treated with 5 µL/well of each of 20x concentrations of the tracer (final concentrations in the assay were in the range 0.001-1 µM, depending on the experiment). Thereafter, 10 µL of 10x solutions of competitors (diluted in Opti-MEM™ medium from stocks of 100x prepared in DMSO) were added to some sets of cells, while the other set received only Opti-MEM™ containing 1% DMSO. The cells were incubated for 2 h at 37°C (5% CO2). […] For each sample well, BRET ratios were calculated using the following formula:
# BRET ratio mBU= AcceptorSDonorS-AcceptorNTDonorNT
# Where AcceptorS is the luminescence intensity of the sample well at 550 nm, DonorS is the luminescence of the sample well at 450 nm, and AcceptorNT and DonorNT are the luminescence of the no-tracer control at 550 nm and 450 nm respectively.
# [9] = K D SPR (PKL), 20 °C, mean ± SE n=3
# T1 sequence (P30613 1-543 isoform P30613-2): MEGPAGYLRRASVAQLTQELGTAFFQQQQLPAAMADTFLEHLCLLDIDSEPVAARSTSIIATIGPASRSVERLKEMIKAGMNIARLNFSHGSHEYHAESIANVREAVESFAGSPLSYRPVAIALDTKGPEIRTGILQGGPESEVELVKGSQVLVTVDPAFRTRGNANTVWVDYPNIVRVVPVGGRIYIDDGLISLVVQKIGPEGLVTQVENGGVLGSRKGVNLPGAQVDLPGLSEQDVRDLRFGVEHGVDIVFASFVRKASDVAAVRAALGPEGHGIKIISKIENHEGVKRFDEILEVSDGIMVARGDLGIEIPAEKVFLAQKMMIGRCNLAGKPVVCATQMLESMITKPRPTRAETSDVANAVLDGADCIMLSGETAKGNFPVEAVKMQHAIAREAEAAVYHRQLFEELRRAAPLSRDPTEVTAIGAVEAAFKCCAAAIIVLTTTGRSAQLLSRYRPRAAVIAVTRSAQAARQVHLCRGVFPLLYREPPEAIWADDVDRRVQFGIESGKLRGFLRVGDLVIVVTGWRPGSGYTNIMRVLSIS
# T2 sequence (P14618 whole entry): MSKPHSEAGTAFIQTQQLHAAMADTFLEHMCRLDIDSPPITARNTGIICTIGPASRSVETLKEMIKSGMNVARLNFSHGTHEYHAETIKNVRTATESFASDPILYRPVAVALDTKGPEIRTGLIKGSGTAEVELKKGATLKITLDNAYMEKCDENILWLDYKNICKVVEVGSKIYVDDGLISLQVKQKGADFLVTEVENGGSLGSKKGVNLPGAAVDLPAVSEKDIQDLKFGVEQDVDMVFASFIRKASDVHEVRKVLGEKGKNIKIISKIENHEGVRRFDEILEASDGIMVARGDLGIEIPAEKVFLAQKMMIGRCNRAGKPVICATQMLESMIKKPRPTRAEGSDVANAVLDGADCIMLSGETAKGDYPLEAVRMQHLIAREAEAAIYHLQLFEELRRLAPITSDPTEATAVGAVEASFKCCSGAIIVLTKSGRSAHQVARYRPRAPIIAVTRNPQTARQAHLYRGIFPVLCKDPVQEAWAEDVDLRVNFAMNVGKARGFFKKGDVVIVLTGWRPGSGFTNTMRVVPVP
# Sequence of PKLwt (P30613 1-543 isoform P30613-2): as the sequence (P30613 1-543 isoform P30613-2) above
# Sequence of PKLNluc (P30613 1-543 isoform P30613-2): as above
"Kd [1, 9]",koff [1],kon [1],EC50 [2],PKL E max [2],PKL activities (% of vehicle) 0.1 µM [3],PKL activities (% of vehicle) 1 µM [3],PKL activities (% of vehicle) 10 µM [3],solubility [4],Kd [5],"K D (SPR, PKM2) [5]",PKM2 E max [6],EC50 [6],Compound,other results
36200 ± 289 nM,0.00833 s⁻¹,167 M⁻¹ s⁻¹,700 nM,120 % vehicle,112 ± 1 % of vehicle,126 ± 1 % of vehicle,133 ± 6 % of vehicle,poor,> 100000 nM,no detectable binding,572 % of vehicle,,"CN(C)c1ccc(S(=O)(=O)c2ccc3c(=O)n(Cc4ccccc4)ncc3c2)c2nonc12 [Compound II, 2-Benzyl-6-((7-(dimethylamino)benzo[c][1,2,5]oxadiazol-4-yl)sulfonyl)phthalazin-1(2H)-one]",weaker PKL affinity relative to compound I ([1]; SPR K D ratio): 250 fold
133 ± 8 nM,0.00533 s⁻¹,41200 M⁻¹ s⁻¹,15 nM,162 % vehicle,115 ± 2 % of vehicle,189 ± 3 % of vehicle,330 ± 3 % of vehicle,,33 ± 1 nM,,596 % of vehicle,25 nM,"O=c1c2ccc(S(=O)(=O)c3ccccc3)cc2cnn1Cc1ccccc1 [Compound I, 2-Benzyl-6-(phenylsulfonyl)phthalazin-1(2H)-one, reference compound]",koff ([5]; read-out: k off SPR (PKM2)): < 0.00055 s⁻¹; kon ([5]; read-out: k on SPR (PKM2)): 4500 M⁻¹ s⁻¹
,,,,,,,,,,,,,"Nc1cccc(S(=O)(=O)N2CCCN(S(=O)(=O)c3ccc4c(c3)OCCO4)CC2)c1 [DASA-58, reference compound]","EC50 [7]: 394 nM; Kd [7]: 179 nM; Kd ([1]; K D (SPR, PKL), 20 °C, recombinant PKL): 170 nM; EC50 ([8]; 2 h 37 °C, live HEK293, Figure 6a, read-out: EC50 displacement of tracer IV): 512 nM; Kd ([8]; Figure 6, read-out: K D (cell), Cheng–Prusoff corrected): 245 nM"
> 100000 nM,,,86000 nM,50 ^a) % vehicle,,,,poor,> 100000 nM,no detectable binding,323 % of vehicle,> 10000 nM,"CN(C)c1ccc(S(=O)(=O)c2ccc3c(=O)n(CC(C)(C)C)ncc3c2)c2nonc12 [Compound III, 6-((7-(Dimethylamino)benzo[c][1,2,5]oxadiazol-4-yl)sulfonyl)-2-neopentylphthalazin-1(2H)-one]","K D SPR (PKL) ([1]; 20 °C, mean ± SE n=3): no binding; effect on PKL at higher concentrations ([2]; >50 µM): weak inhibition"
